Where two headings read alike, the source gives them in different places. Where a SMILES comes first, the peptide text is derived from it. Bridges are numbered along the chain shown (N, C = ends). [ ]: non-standard residue; d: D form. The star is where a group is joined. hPhe(3,5-F2-4-CF3) = N[C@@H](CCc1cc(F)c(C(F)(F)F)c(F)c1)C(=O)O; hPhe(3-Cl-4-CF3) = N[C@@H](CCc1ccc(C(F)(F)F)c(Cl)c1)C(=O)O; NPrPhe(4-CF3) = CCCN[C@@H](Cc1ccc(C(F)(F)F)cc1)C(=O)O; NMeGly(cPent) = CN[C@H](C(=O)O)C1CCCC1; Pro(4,4-F2) = O=C(O)[C@@H]1CC(F)(F)CN1; Pro(4S-Me) = C[C@@H]1CN[C@H](C(=O)O)C1; αMeCha = C[C@](N)(CC1CCCCC1)C(=O)O; NMeD = CN[C@@H](CC(=O)O)C(=O)O; NMeL = CN[C@@H](CC(C)C)C(=O)O; NMeNva = CCC[C@H](NC)C(=O)O; Morpholide = C1CN(*)CCO1; NMeA = CN[C@@H](C)C(=O)O; Ac5c = NC1(C(=O)O)CCCC1; Aze = O=C(O)[C@@H]1CCN1; Ac4c = NC1(C(=O)O)CCC1; Sar = CNCC(=O)O
What was measured:
[1] = biological target: GDP-bound HRAS wild-type protein (Homo sapiens, UniProt P01112); assay: Binding to HRAS by surface plasmon resonance (SPR), Single Cycle Kinetics; conditions: for HRAS/KRAS (ratio of KD value with respect to HRAS to KD value with respect to KRAS) / HRAS/KRAS (ratio of KD value for HRAS to KD value for KRAS): SPR, GDP-bound HRAS wild-type protein vs GDP-bound KRAS wild-type protein
[2] = biological target: GDP-bound KRAS wild-type protein (Homo sapiens, UniProt P01116); assay: Binding to KRAS by surface plasmon resonance (SPR), Single Cycle Kinetics; conditions: GDP-bound KRAS wild-type protein, read-out: KRAS KD
[3] = biological target: GDP-bound NRAS wild-type protein (Homo sapiens, UniProt P01111); assay: Binding to NRAS by surface plasmon resonance (SPR), Single Cycle Kinetics; conditions: for NRAS/KRAS (ratio of KD value with respect to NRAS to KD value with respect to KRAS) / NRAS/KRAS (ratio of KD value for NRAS to KD value for KRAS): SPR, GDP-bound NRAS wild-type protein vs GDP-bound KRAS wild-type protein
[4] = SPR Single Cycle Kinetics, 1:1 binding model

Sequence of GDP-bound KRAS wild-type protein (P01116 whole entry): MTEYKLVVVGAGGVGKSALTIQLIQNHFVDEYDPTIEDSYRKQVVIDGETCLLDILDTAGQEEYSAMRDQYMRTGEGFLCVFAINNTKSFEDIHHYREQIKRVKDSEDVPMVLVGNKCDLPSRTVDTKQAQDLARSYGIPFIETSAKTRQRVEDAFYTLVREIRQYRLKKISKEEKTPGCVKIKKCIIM
Sequence of GDP-bound HRAS wild-type protein (P01112 whole entry): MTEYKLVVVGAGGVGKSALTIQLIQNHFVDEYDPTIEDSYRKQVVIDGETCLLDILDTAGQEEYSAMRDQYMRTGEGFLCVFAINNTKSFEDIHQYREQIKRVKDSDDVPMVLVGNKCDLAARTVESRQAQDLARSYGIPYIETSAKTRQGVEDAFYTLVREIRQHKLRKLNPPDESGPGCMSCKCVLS
Sequence of GDP-bound NRAS wild-type protein (P01111 whole entry): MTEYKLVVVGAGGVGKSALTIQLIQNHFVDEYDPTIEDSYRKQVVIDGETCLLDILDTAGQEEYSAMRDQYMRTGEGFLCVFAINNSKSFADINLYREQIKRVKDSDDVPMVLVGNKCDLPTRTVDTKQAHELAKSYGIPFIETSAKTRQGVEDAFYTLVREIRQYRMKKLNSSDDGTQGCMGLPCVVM

Row | Structure (SMILES) | HRAS/KRAS (ratio of KD value with respect to HRAS to KD value with respect to KRAS) [1] | Kd [2, 4] | NRAS/KRAS (ratio of KD value with respect to NRAS to KD value with respect to KRAS) [3] | HRAS/KRAS (ratio of KD value for HRAS to KD value for KRAS) [1] | NRAS/KRAS (ratio of KD value for NRAS to KD value for KRAS) [3] | also measured
1 | CCCN1C(=O)[C@@H]2CCN2C(=O)CN(C)C(=O)[C@H]([C@@H](C)CC)NC(=O)[C@H](CC(C)C)N(C)C(=O)C[C@@H](C(=O)N(C)C)N(C)C(=O)[C@H](C2CCCC2)N(C)C(=O)C2(CCC2)NC(=O)[C@@H]2CC(F)(F)CN2C(=O)[C@H](CCc2ccc(C(F)(F)F)c(Cl)c2)NC(=O)CN(C)C(=O)[C@@H]1Cc1ccc(C(F)(F)F)cc1 [PP0443] ([NMeL]I[Sar][Aze][NPrPhe(4-CF3)][Sar][hPhe(3-Cl-4-CF3)][Pro(4,4-F2)][Ac4c][NMeGly(cPent)][NMeD]-NMe2; lactam N-11) | C (A compound having a KD ratio of 0.1 or more and less than 3 is denoted as C) | 0.027 nM | C (A compound having a KD ratio of 0.1 or more and less than 3 is denoted as C) | – | – | –
2 | CCO[C@@H]1C[C@H]2C(=O)NC3(CCC3)C(=O)N(C)[C@@H](C3CCCC3)C(=O)N(C)[C@H](C(=O)N(C)CC)CC(=O)N(C)[C@@H](CC)C(=O)N[C@@H]([C@@H](C)CC)C(=O)N(C)CC(=O)N(C)[C@H]3C/C=C\CCN(C3=O)[C@@H](CC3CCCCC3)C(=O)N(C)CC(=O)N[C@@H](CCc3cc(F)c(C(F)(F)F)c(F)c3)C(=O)N2C1 [PP1552] | – | – | – | – | – | HRAS/KRAS (ratio of KD value for HRAS to KD value for KRAS) ([1]; KD ratio class): A (a compound having 10 or more and less than 20 is denoted as A); Kd ([2]; SPR, Single Cycle Kinetics, 1:1 binding model): 0.19 nM; NRAS/KRAS (ratio of KD value for NRAS to KD value for KRAS) ([3]; KD ratio class): A (a compound having 10 or more and less than 20 is denoted as A)
3 | CCCN1C(=O)[C@@H]2CCN2C(=O)CN(C)C(=O)[C@H]([C@@H](C)CC)NC(=O)[C@H](CC(C)C)N(C)C(=O)C[C@@H](C(=O)N2CCOCC2)N(C)C(=O)[C@H](C2CCCC2)N(C)C(=O)C2(CCCC2)NC(=O)[C@@H]2CCCN2C(=O)[C@H](CCc2ccc(C(F)(F)F)c(Cl)c2)NC(=O)CN(C)C(=O)[C@@H]1Cc1ccc(C(F)(F)F)cc1 [PP0156] ([NMeL]I[Sar][Aze][NPrPhe(4-CF3)][Sar][hPhe(3-Cl-4-CF3)]P[Ac5c][NMeGly(cPent)][NMeD]-Morpholide; lactam N-11) | – | 0.12 nM | – | B (a compound having 3 or more and less than 10 is denoted as B) | C (A compound having a KD ratio of 0.1 or more and less than 3 is denoted as C) | –
4 | CC[C@H](C)[C@@H]1NC(=O)[C@H](CC(C)C)N(C)C(=O)C[C@@H](C(=O)N2CCOCC2)N(CC)C(=O)[C@H](C2CCCC2)N(C)C(=O)C2(CCCC2)NC(=O)[C@@H]2CCCN2C(=O)[C@H](CCc2cc(F)c(C(F)(F)F)c(F)c2)NC(=O)CN(C)C(=O)[C@H](Cc2ccc(C(F)(F)F)cc2)N2CCCC[C@@H](C2=O)N(C)C(=O)CN(C)C1=O [PP0539] | B (a compound having 3 or more and less than 10 is denoted as B) | 0.17 nM | B (a compound having 3 or more and less than 10 is denoted as B) | – | – | –
5 | CCC[C@H]1C(=O)N[C@@H]([C@@H](C)CC)C(=O)N2CCC[C@H]2C(=O)N(C)[C@H]2C/C=C\CCN(C2=O)[C@@H](CC2CCCCC2)C(=O)N(C)CC(=O)N[C@@H](CCc2ccc(C(F)(F)F)c(OC)c2)C(=O)N2C[C@H](OCC)C[C@H]2C(=O)N(C)C2(CCC2)C(=O)N(C)[C@@H](C(CC)CC)C(=O)N(C)[C@H](C(=O)N(C)C)CC(=O)N1C [PP2341] | – | – | – | A (a compound having 10 or more and less than 20 is denoted as A) | A (a compound having 10 or more and less than 20 is denoted as A) | Kd ([2]; SPR, Single Cycle Kinetics): 3.6 nM
6 | CCO[C@@H]1C[C@H]2C(=O)NC3(CC(C)(C)C3)C(=O)N(C)[C@@H](C(CC)CC)C(=O)N(C)[C@H](C(=O)N(C)C)CC(=O)N(C)[C@@H](CC)C(=O)N[C@@H]([C@@H](C)CC)C(=O)N(C)CC(=O)N(C)[C@H]3C/C=C\CCN(C3=O)[C@@H](Cc3ccc(C(F)(F)F)cc3)C(=O)N(C)CC(=O)N[C@@H](CCc3cc(F)c(C(F)(F)F)c(F)c3)C(=O)N2C1 [PP2062] | – | – | – | A (a compound having 10 or more and less than 20 is denoted as A) | AA (a compound having 20 or more is denoted as AA) | Kd ([2]; SPR, Single Cycle Kinetics): 0.19 nM
7 | CCCN1C(=O)CN(C)C(=O)CN(C)C(=O)[C@H]([C@@H](C)CC)NC(=O)[C@H](CC(C)C)N(C)C(=O)C[C@@H](C(=O)N(C)C)N(C)C(=O)[C@H](C2CCCC2)N(C)C(=O)[C@](C)(CC2CCCCC2)NC(=O)[C@@H]2CCCN2C(=O)[C@H](CCc2cc(F)c(C(F)(F)F)c(F)c2)NC(=O)CN(C)C(=O)[C@@H]1Cc1ccc(C(F)(F)F)cc1 [PP0739] ([NMeL]I[Sar][Sar][NPrPhe(4-CF3)][Sar][hPhe(3,5-F2-4-CF3)]P[αMeCha][NMeGly(cPent)][NMeD]-NMe2; lactam N-11) | C (A compound having a KD ratio of 0.1 or more and less than 3 is denoted as C) | 3.7 nM | B (a compound having 3 or more and less than 10 is denoted as B) | – | – | –
8 | CCC[C@H]1C(=O)N[C@@H]([C@@H](C)CC)C(=O)N(C)[C@@H](C)C(=O)N2CC[C@H]2C(=O)N(CCC)[C@@H](Cc2ccc(C(F)(F)F)cc2)C(=O)N(C)CC(=O)N[C@@H](CCc2ccc(C(F)(F)F)c(Cl)c2)C(=O)N2CCC[C@H]2C(=O)NC2(CCCC2)C(=O)N(C)[C@@H](C2CCCC2)C(=O)N(C)[C@H](C(=O)N2CCOCC2)CC(=O)N1C [PP0193] ([NMeNva]I[NMeA][Aze][NPrPhe(4-CF3)][Sar][hPhe(3-Cl-4-CF3)]P[Ac5c][NMeGly(cPent)][NMeD]-Morpholide; lactam N-11) | – | 0.17 nM | – | C (A compound having a KD ratio of 0.1 or more and less than 3 is denoted as C) | C (A compound having a KD ratio of 0.1 or more and less than 3 is denoted as C) | –
9 | CCCN(C)C(=O)[C@@H]1CC(=O)N(C)[C@@H](CC)C(=O)N[C@@H]([C@@H](C)CC)C(=O)N(C)CC(=O)N(C)[C@H]2C/C=C\CCN(C2=O)[C@@H](Cc2ccc(C(F)(F)F)cc2)C(=O)N(C)CC(=O)N[C@@H](CCc2cc(F)c(C(F)(F)F)c(F)c2)C(=O)N2CC[C@H]2C(=O)NC2(CCC2)C(=O)N(C)[C@@H](C2CCCC2)C(=O)N1C [PP2915] | – | 1.2 nM | – | – | – | HRAS/KRAS (ratio of KD value with respect to GDP-bound HRAS wild-type protein to KD value with respect to KRAS) ([1]; SPR KD ratio HRAS/KRAS, class symbols): A (a compound having 10 or more and less than 20 is denoted as A); NRAS/KRAS (ratio of KD value with respect to GDP-bound NRAS wild-type protein to KD value with respect to KRAS) ([3]; SPR KD ratio NRAS/KRAS, class symbols): A (a compound having 10 or more and less than 20 is denoted as A)
10 | CCCN1C(=O)CN(C)C(=O)CNC(=O)[C@H]([C@@H](C)CC)NC(=O)[C@H](CC(C)C)N(C)C(=O)C[C@@H](C(=O)N2CCOCC2)N(C)C(=O)[C@H](C2CCCC2)N(C)C(=O)C2(CCCC2)NC(=O)[C@@H]2C[C@H](C)CN2C(=O)[C@H](CCc2ccc(C(F)(F)F)c(Cl)c2)NC(=O)CN(C)C(=O)[C@@H]1Cc1ccc(C(F)(F)F)cc1 [PP0449] ([NMeL]IG[Sar][NPrPhe(4-CF3)][Sar][hPhe(3-Cl-4-CF3)][Pro(4S-Me)][Ac5c][NMeGly(cPent)][NMeD]-Morpholide; lactam N-11) | C (A compound having a KD ratio of 0.1 or more and less than 3 is denoted as C) | 0.35 nM | C (A compound having a KD ratio of 0.1 or more and less than 3 is denoted as C) | – | – | –
11 | CCC[C@H]1C(=O)N[C@@H]([C@@H](C)CC)C(=O)N(C)CC(=O)N(C)[C@H]2C/C=C\CCN(C2=O)[C@@H](Cc2ccc(C)cc2)C(=O)N(C)CC(=O)N[C@@H](CCc2cc(F)c(C(F)(F)F)c(F)c2)C(=O)N2CC3(CC3)C[C@H]2C(=O)NC2(CC(C)(C)C2)C(=O)N(C)[C@@H](CC(C)(C)C)C(=O)N(C)[C@H](C(=O)N(C)C)CC(=O)N1C [PP2997] | – | – | – | B (a compound having 3 or more and less than 10 is denoted as B) | A (a compound having 10 or more and less than 20 is denoted as A) | Kd ([2]; SPR, Single Cycle Kinetics): 0.12 nM
12 | CCO[C@@H]1C[C@H]2C(=O)NC3(CCC3)C(=O)N(C)[C@@H](C3CCCC3)C(=O)N(CCC3CCCC3)[C@H](C(=O)N3CCOCC3)CC(=O)N(C)[C@@H](CC(C)C)C(=O)N[C@@H]([C@@H](C)CC)C(=O)N(C)CC(=O)N(C)[C@H]3CCCCN(C3=O)[C@@H](Cc3ccc(C(F)(F)F)cc3)C(=O)N(C)CC(=O)N[C@@H](CCc3cc(F)c(C(F)(F)F)c(F)c3)C(=O)N2C1 [PP0651] | B (a compound having 3 or more and less than 10 is denoted as B) | 0.6 nM | B (a compound having 3 or more and less than 10 is denoted as B) | – | – | –
13 | CCCN1C(=O)[C@@H]2CCN2C(=O)CN(C)C(=O)[C@H]([C@@H](C)CC)NC(=O)[C@H](CC(C)C)N(C)C(=O)C[C@@H](C(=O)N2CCOCC2)NC(=O)[C@H](C2CCCC2)N(C)C(=O)C2(CCC2)NC(=O)[C@@H]2CC(F)(F)CN2C(=O)[C@H](CCc2ccc(C(F)(F)F)c(Cl)c2)NC(=O)CN(C)C(=O)[C@@H]1Cc1ccc(C(F)(F)F)cc1 [PP0352] ([NMeL]I[Sar][Aze][NPrPhe(4-CF3)][Sar][hPhe(3-Cl-4-CF3)][Pro(4,4-F2)][Ac4c][NMeGly(cPent)]D-Morpholide; lactam N-11) | – | 0.82 nM | – | B (a compound having 3 or more and less than 10 is denoted as B) | C (A compound having a KD ratio of 0.1 or more and less than 3 is denoted as C) | –
